This is an account of results in patent publication US10501460B2, “Heterocyclic compounds and uses thereof” (Plexxikon Inc., priority 2013, dated 2019).

As a reminder, the IC50 is the concentration needed to halve the response being measured.

One test deals with T1, BRD4-BD1 (44-164) (Homo sapiens, UniProt O60885).
T1 construct: BRD4-BD1 (44-164); made in house; host or cells: E. coli BL21-CodonPlus (DE3)
The experiment in a line: Alphascreen binding assay BRD4-BD1 (BRD4 biochemical inhibitory activity). The conditions noted are these: read-out: Biochemical activity (IC50 μM) BRD4(1) H4. The gist of the method: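 His-tagged human BRD4-BD1 (44-164), E. coli-expressed, incubated 1 h at room temperature with compound and biotinylated tetra-acetylated histone H4 (1-21) peptide in HEPES pH 7.5 buffer with NaCl, BSA, Triton X-100 and DTT. AlphaScreen nickel-chelate/streptavidin beads (7.5 μg/ml final) added, read after 30 min. pIC50 from four-parameter fit of control-normalized signal.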

Another test has as its system MV-4-11. The test can be described thus: Oncology cell growth assay MV-4-11 (CellTiter Glo, 72 hours). The test is classed as cell-based. Conditions: Homo sapiens, MV4-11, 72 h; MV-4-11 cell growth inhibitory activity, 3d. Put shortly:
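Growth read by CellTiter Glo luminescence after 72 h compound exposure of MV-4-11 AML cells (MLL-AF4), using 8-point 1:3 series to 10 μM final in 0.2% DMSO. Data normalized to DMSO wells, four-parameter fit yields pIC50.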

The next test has as its system bromodomain. The test can be described thus: Bromodomain cell assays of Example 40 (at least one of them). Type of test: cell-based. The conditions noted are these: in at least one of the bromodomain cell assays described in Example 40. Put shortly: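 Growth inhibition: 3000 MV-4-11, MOLM-13, MM.1S or neuroblastoma cells/well got an 8-point 1:3 series from 10 μM top (0.2% DMSO) for 72 h, then CellTiter-Glo luminescence. Myc reporter: MV-4-11 with E-box firefly luciferase, 24 h exposure, One-Glo luminescence plus CellTiter-Fluo cell count. pIC50 from four-parameter fit.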

In the case of `Cc1noc(C)c1-c1cnc2c(CCC(=O)O)cn(S(=O)(=O)c3ccccc3)c2c1` [P-0174, 3-[1-(benzenesulfonyl)-6-(3,5-dimethylisoxazol-4-yl)pyrrolo[3,2-b]pyridin-3-yl]propanoic acid], the results for the IC50 on BRD4-BD1 (44-164), in the test on MV-4-11 and in the test on bromodomain were 1 to 10 µM, 1 to 10 µM and less than 10 µM, respectively.
In the case of `Cc1noc(C)c1-c1cnc2c(-c3cccnc3)c[nH]c2c1` [P-0083, 3,5-dimethyl-4-[3-(3-pyridyl)-1H-pyrrolo[3,2-b]pyridin-6-yl]isoxazole], the half-inhibitory concentration (IC50) at BRD4-BD1 (44-164) is 1 to 10 µM; with MV-4-11 it was 1 to 10 µM; in the test on bromodomain, less than 10 µM.
`Cc1cc(-c2cn(S(=O)(=O)c3ccccc3)c3cc(-c4c(C)noc4C)cnc23)[nH]n1` [P-0164, 4-[1-(benzenesulfonyl)-3-(3-methyl-1H-pyrazol-5-yl)pyrrolo[3,2-b]pyridin-6-yl]-3,5-dimethyl-isoxazole]: the IC50 on BRD4-BD1 (44-164) was no more than 1 µM; with MV-4-11 it was no more than 1 µM; in the test on bromodomain it was less than 10 µM.
For `[2H]C([2H])([2H])n1cc(CC2CCN(C(=O)OCc3ccccc3)CC2)c2cc(-c3c(C)noc3C)cnc21` [P-0092, benzyl 4-[[5-(3,5-dimethylisoxazol-4-yl)-1-(trideuteriomethyl)pyrrolo[2,3-b]pyridin-3-yl]methyl]piperidine-1-carboxylate], the IC50 is no more than 1 µM at BRD4-BD1 (44-164), 1 to 10 µM with MV-4-11 and less than 10 µM in the test with bromodomain.
In the case of `COc1ccc(S(=O)(=O)n2ccc3ncc(-c4c(C)noc4C)cc32)cc1` [P-0032, 4-[1-(4-methoxyphenyl)sulfonylpyrrolo[3,2-b]pyridin-6-yl]-3,5-dimethyl-isoxazole], the half-maximal inhibitory concentration (IC50) on BRD4-BD1 (44-164) was 1 to 10 µM; in the test with MV-4-11, 1 to 10 µM; in the test with bromodomain, less than 10 µM.
As to `Cc1noc(C)c1-c1cnc2ccn(S(=O)(=O)c3cccs3)c2c1` [P-0055, 3,5-dimethyl-4-[1-(2-thienylsulfonyl)pyrrolo [3,2-b]pyridin-6-yl]isoxazole], the IC50 was 1 to 10 µM on BRD4-BD1 (44-164), 1 to 10 µM in the test with MV-4-11 and less than 10 µM in the test with bromodomain.
On to `Cc1noc(C)c1-c1cnc2ccn(S(=O)(=O)c3cnn(C(F)F)c3)c2c1` [P-0054, 4-[1-[1-(difluoromethyl)pyrazol-4-yl]sulfonylpyrrolo[3,2-b]pyridin-6-yl]-3,5-dimethyl-isoxazole], for which the 50% inhibitory concentration (IC50) at BRD4-BD1 (44-164) was 1 to 10 µM; with MV-4-11, 1 to 10 µM; with bromodomain, less than 10 µM.
With `Cc1noc(C)c1-c1cnc2c(C#CCF)cn(S(=O)(=O)c3ccccc3)c2c1` [P-0157, 4-[1-(benzenesulfonyl)-3-(3-fluoroprop-1-ynyl)pyrrolo[3,2-b]pyridin-6-yl]-3,5-dimethyl-isoxazole], the IC50 on BRD4-BD1 (44-164) was no more than 1 µM; with MV-4-11, no more than 1 µM; in the test on bromodomain, less than 10 µM.
As to `Cc1noc(C)c1-c1cnc2ccn(S(=O)(=O)c3ccc(Cl)cc3)c2c1` [P-0053, 4-[1-(4-chlorophenyl)sulfonylpyrrolo[3,2-b]pyridin-6-yl]-3,5-dimethyl-isoxazole], the results for the IC50 on BRD4-BD1 (44-164), in the test with MV-4-11 and in the test with bromodomain were 1 to 10 µM, 1 to 10 µM and less than 10 µM, respectively.
In the case of `Cc1noc(C)c1-c1cnc2[nH]cc(C=C3CC[S+]([O-])CC3)c2c1` (stereo not drawn) [P-0093, 4-[[5-(3,5-dimethylisoxazol-4-yl)-1H-pyrrolo[2,3-b]pyridin-3-yl]methylene]thiane 1-oxide], the IC50 at BRD4-BD1 (44-164) was 1 to 10 µM; with MV-4-11, 1 to 10 µM; with bromodomain it was less than 10 µM.
As for `Cc1noc(C)c1-c1cnc2ccn(S(=O)(=O)c3ccc(F)cc3)c2c1` [P-0052, 4-[1-(4-fluorophenyl)sulfonylpyrrolo[3,2-b]pyridin-6-yl]-3,5-dimethyl-isoxazole], the results for the half-inhibitory concentration (IC50) on BRD4-BD1 (44-164), in the test on MV-4-11 and with bromodomain were 1 to 10 µM, 1 to 10 µM and less than 10 µM, respectively.
Consider `Cc1noc(C)c1-c1cnc2c(c1)c(Sc1ccccc1)cn2C1CCOC1` (stereo not drawn) [P-0180, 3,5-dimethyl-4-(3-phenylsulfanyl-1-tetrahydrofuran-3-yl-pyrrolo[2,3-b]pyridin-5-yl)isoxazole], for which the IC50 at BRD4-BD1 (44-164) is 1 to 10 µM; in the test on MV-4-11, 1 to 10 µM; with bromodomain, less than 10 µM.
Regarding `Cc1noc(C)c1-c1cnc2c(c1)c(S(=O)(=O)c1ccccc1)cn2C1CCOC1` (stereo not drawn) [P-0181, 4-[3-(benzenesulfonyl)-1-tetrahydrofuran-3-yl-pyrrolo[2,3-b]pyridin-5-yl]-3,5-dimethyl-isoxazole], the values for the IC50 on BRD4-BD1 (44-164), in the test on MV-4-11 and with bromodomain were 1 to 10 µM, no more than 1 µM and less than 10 µM, respectively.
Consider `Cc1noc(C)c1-c1cnc2ccn(S(=O)(=O)c3cccc(OC(F)F)c3)c2c1` [P-0061, 4-[1-[3-(difluoromethoxy)phenyl]sulfonylpyrrolo [3,2-b]pyridin-6-yl]-3,5-dimethyl-isoxazole], for which the IC50 is 1 to 10 µM on BRD4-BD1 (44-164), 1 to 10 µM in the test on MV-4-11 and less than 10 µM in the test on bromodomain.
`Cc1noc(C)c1-c1cnc2ccn(S(=O)(=O)c3cccc(F)c3)c2c1` [P-0056, 4-[1-(3-fluorophenyl)sulfonylpyrrolo[3,2-b]pyridin-6-yl]-3,5-dimethyl-isoxazole]: the IC50 at BRD4-BD1 (44-164) was 1 to 10 µM; in the test with MV-4-11 it was 1 to 10 µM; in the test on bromodomain, less than 10 µM.
Turning to `Cc1nn(C(F)F)cc1S(=O)(=O)n1ccc2ncc(-c3c(C)noc3C)cc21` [P-0058, 4-[1-[1-(difluoromethyl)-3-methyl-pyrazol-4-yl]sulfonylpyrrolo[3,2-b]pyridin-6-yl]-3,5-dimethyl-isoxazole], the 50% inhibitory concentration (IC50) at BRD4-BD1 (44-164) was 1 to 10 µM; in the test on MV-4-11 it was 1 to 10 µM; in the test on bromodomain, less than 10 µM.
For `Cc1noc(C)c1-c1cnc2c(c1)c(S(=O)(=O)c1ccccc1)cn2C1CCOCC1` [P-0183, 4-[3-(benzenesulfonyl)-1-tetrahydropyran-4-yl-pyrrolo[2,3-b]pyridin-5-yl]-3,5-dimethyl-isoxazole], the IC50 at BRD4-BD1 (44-164) is 1 to 10 µM; with MV-4-11, no more than 1 µM; with bromodomain, less than 10 µM.
